Laboratory results published in US6455540B1, “Methods of use of quinolone compounds against anaerobic pathogenic bacteria” (priority 1999, dated 2002).
Converted amounts (≈) assume the structure as drawn.

Columns and labels:
Gram-positive anaerobes = assay: Agar dilution activity against Gram-positive anaerobes; format: cell-based; details: for activity compared with trovafloxacin: Gram-positive strains
Prevotella intermedia = assay: Agar dilution MIC; format: cell-based
Bacteroides gracilis = assay: Agar dilution MIC; format: cell-based, Bacteroides gracilis (Campylobacter gracilis)
[1] = tested on: Peptostreptococcus magnus; assay: Agar dilution MIC; format: cell-based; details: Finegoldia magna
Porphyromonas gingivalis = assay: Agar dilution MIC; format: cell-based; details: Porphyromonas gingivalis
Fusobacterium varium = assay: Agar dilution MIC; format: cell-based
[2] = tested on: Prevotella melaninogenica; assay: Agar dilution MIC; format: cell-based
Bacteroides ureolyticus = assay: Agar dilution MIC; format: cell-based
Fusobacterium russii = assay: Agar dilution MIC; format: cell-based
Porphyromonas canoris = assay: Agar dilution MIC; format: cell-based
Clostridium inocuum = assay: Agar dilution MIC; format: cell-based, Clostridium innocuum
B. thetaiotaomicron = details: Goldstein, et al.; cited from earlier work
[3] = tested on: Actinomyces odontolyticus; assay: Agar dilution MIC; format: cell-based
[4] = tested on: Anaerobiospirillum thomasii; assay: Agar dilution MIC; format: cell-based
[5] = tested on: Prevotella denticola/loeschii group; assay: Agar dilution MIC; format: cell-based
[6] = tested on: Clostridium clostridioforme; assay: Agar dilution MIC; format: cell-based
Porphyromonas macaccae = assay: Agar dilution MIC; format: cell-based
[7] = tested on: certain Prevotella strains; details: Goldstein, et al.; cited from earlier work
[8] = tested on: Prevotella buccae-oris group; assay: Agar dilution MIC; format: cell-based; details: 22 isolates
[9] = read-out: Minimal Inhibitory Concentration 50% (MIC50)
[10] = 13 isolates, read-out: Minimal Inhibitory Concentration 90% (MIC90)
[11] = Clostridium, 11 isolates, read-out: Minimal Inhibitory Concentration 90% (MIC90)
[12] = Clostridium, read-out: Minimal Inhibitory Concentration 50% (MIC50)

With `CO/N=C1\CN(c2nc3c(cc2F)c(=O)c(C(=O)O)cn3C2CC2)CC1CN` (racemic) [Gemifloxacin, (R,S)-7-(3-aminomethyl-4-methoxyiminopyrrolidin-1-yl)-1-cyclopropyl-6-fluoro-4-oxo-1,4-dihydro-1,8-naphthyridine-3-carboxylic acid] as the compound, how does the “activity” value (Gram-positive anaerobes) read?
The value was “good activity”.

And the “activity compared with trovafloxacin” value (Gram-positive anaerobes)?
Its value is “generally more active than trovafloxacin against Gram-positive strains by one to two dilutions”.

And the “activity compared with trovafloxacin” value (Gram-positive anaerobes; listed as gemifloxacin)?
The value was “compared favorably with trovafloxacin”.

What about the “Minimal Inhibitory Concentration 90% (MIC90)” value (Prevotella intermedia; 11 isolates) of the same compound?
Its value is 0.5 µg/mL.

What about the “Minimal Inhibitory Concentration Range” value (Prevotella intermedia; 11 isolates) of the same compound?
Its value is 0.06 to 1 µg/mL.

What about the “Minimal Inhibitory Concentration 90% (MIC90)” value (Prevotella intermedia; 11 isolates, listed as gemifloxacin) of the same compound?
The value was at most 2 µg/mL.

And the MIC50 (Prevotella intermedia; Prevotella intermedia, read-out: Minimal Inhibitory Concentration 50% (MIC50))?
Its MIC50 is 0.25 µg/mL (≈ 0.642 µM).

What about the “Minimal Inhibitory Concentration 90% (MIC90)” value (Bacteroides gracilis; 11 isolates) of the same compound?
Its value is 1 µg/mL.

And the MIC90 (Bacteroides gracilis; Campylobacter gracilis, 11 isolates, read-out: Minimal Inhibitory Concentration 90% (MIC90))?
Its MIC90 is at most 2 µg/mL.

What about the MIC50 (Bacteroides gracilis; Campylobacter gracilis, read-out: Minimal Inhibitory Concentration 50% (MIC50)) of the same compound?
Its MIC50 is at most 0.015 µg/mL.

And the MIC50 [1, 9]?
Its MIC50 is 0.03 µg/mL (≈ 0.077 µM).

What about the MIC90 [1, 10] of the same compound?
Its MIC90 is 0.06 µg/mL (≈ 0.154 µM).

What about the MIC50 (Porphyromonas gingivalis; [9]) of the same compound?
The MIC50 was 0.06 µg/mL (≈ 0.154 µM).

And the MIC90 (Porphyromonas gingivalis; [10])?
Its MIC90 is 0.125 µg/mL (≈ 0.321 µM).

What about the “susceptibility pattern of strains” value (Fusobacterium varium) of the same compound?
Its value is “bimodal pattern”.

What about the MIC50 (Fusobacterium varium; Fusobacterium varium, read-out: Minimal Inhibitory Concentration 50% (MIC50)) of the same compound?
Its MIC50 is over 8 µg/mL.

What about the MIC90 (Fusobacterium varium; Fusobacterium varium, 17 isolates, read-out: Minimal Inhibitory Concentration 90% (MIC90)) of the same compound?
Its MIC90 is over 8 µg/mL.

What about the “Minimal Inhibitory Concentration 90% (MIC90)” value ([2]; 12 isolates) of the same compound?
Its value is 8 µg/mL.

What about the MIC90 ([2]; Prevotella melaninogenica, 12 isolates, read-out: Minimal Inhibitory Concentration 90% (MIC90)) of the same compound?
The MIC90 was at least 4 µg/mL.

And the MIC50 ([2]; Prevotella melaninogenica, read-out: Minimal Inhibitory Concentration 50% (MIC50))?
The MIC50 was 1 µg/mL (≈ 2.57 µM).

What about the “Minimal Inhibitory Concentration 90% (MIC90)” value (Bacteroides ureolyticus; 17 isolates) of the same compound?
Its value is 2 µg/mL.

What about the MIC90 (Bacteroides ureolyticus; Campylobacter ureolyticus, 17 isolates, read-out: Minimal Inhibitory Concentration 90% (MIC90)) of the same compound?
Its MIC90 is at most 2 µg/mL.

What about the MIC50 (Bacteroides ureolyticus; Campylobacter ureolyticus, read-out: Minimal Inhibitory Concentration 50% (MIC50)) of the same compound?
The MIC50 was at most 0.015 µg/mL.

And the “Minimal Inhibitory Concentration 90% (MIC90)” value (Fusobacterium russii)?
Its value is over 8 µg/mL.

And the MIC50 (Fusobacterium russii; Fusobacterium russii, read-out: Minimal Inhibitory Concentration 50% (MIC50))?
The MIC50 was over 8 µg/mL.

What about the MIC90 (Fusobacterium russii; Fusobacterium russii, read-out: Minimal Inhibitory Concentration 90% (MIC90)) of the same compound?
The MIC90 was at least 4 µg/mL.

What about the “Minimal Inhibitory Concentration Range” value (Porphyromonas canoris; 10 isolates) of the same compound?
Its value is 0.06 to 0.25 µg/mL.

What about the MIC50 (Porphyromonas canoris; Porphyromonas canoris, read-out: Minimal Inhibitory Concentration 50% (MIC50)) of the same compound?
The MIC50 was 0.25 µg/mL (≈ 0.642 µM).

What about the MIC90 (Porphyromonas canoris; Porphyromonas canoris, 10 isolates, read-out: Minimal Inhibitory Concentration 90% (MIC90)) of the same compound?
Its MIC90 is 0.25 µg/mL (≈ 0.642 µM).

And the “susceptibility to gemifloxacin” value (Clostridium inocuum)?
Its value is “relatively susceptible”.

And the “Minimal Inhibitory Concentration 90% (MIC90)” value (Clostridium inocuum; 11 isolates)?
The value was 2 µg/mL.

And the MIC90 (Clostridium inocuum; [11])?
The MIC90 was at most 2 µg/mL.

And the MIC50 (Clostridium inocuum; [12])?
Its MIC50 is 0.25 µg/mL (≈ 0.642 µM).

What about the “activity” value (B. thetaiotaomicron) of the same compound?
The value was “only limited activity”.

What about the “Minimal Inhibitory Concentration 90% (MIC90)” value ([3]; 10 isolates) of the same compound?
Its value is 2 µg/mL.

What about the “Minimal Inhibitory Concentration Range” value ([3]; 10 isolates) of the same compound?
Its value is 1 to 2 µg/mL.

And the MIC90 ([3]; Schaalia odontolytica, 10 isolates, read-out: Minimal Inhibitory Concentration 90% (MIC90))?
Its MIC90 is at most 2 µg/mL.

And the MIC50 ([3]; Schaalia odontolytica, read-out: Minimal Inhibitory Concentration 50% (MIC50))?
The MIC50 was 2 µg/mL (≈ 5.14 µM).

And the “Minimal Inhibitory Concentration Range” value ([4]; 13 isolates)?
The value was 0.06 to 0.25 µg/mL.

What about the MIC50 ([4]; Anaerobiospirillum thomasii, read-out: Minimal Inhibitory Concentration 50% (MIC50)) of the same compound?
The MIC50 was 0.125 µg/mL (≈ 0.321 µM).

What about the MIC90 ([4]; Anaerobiospirillum thomasii, 13 isolates, read-out: Minimal Inhibitory Concentration 90% (MIC90)) of the same compound?
Its MIC90 is 0.125 µg/mL (≈ 0.321 µM).

And the “Minimal Inhibitory Concentration Range” value ([5]; 6 isolates)?
The value was 0.25 to 8 µg/mL.

And the MIC50 ([5]; Prevotella denticola, read-out: Minimal Inhibitory Concentration 50% (MIC50))?
Its MIC50 is 0.5 µg/mL (≈ 1.28 µM).

And the “susceptibility to gemifloxacin” value [6]?
Its value is “relatively susceptible”.

And the “Minimal Inhibitory Concentration 90% (MIC90)” value ([6]; 11 isolates)?
Its value is 1 µg/mL.

What about the MIC90 [6, 11] of the same compound?
The MIC90 was at most 2 µg/mL.

What about the MIC50 [6, 12] of the same compound?
The MIC50 was 0.5 µg/mL (≈ 1.28 µM).

What about the “Minimal Inhibitory Concentration Range” value (Porphyromonas macaccae; 13 isolates) of the same compound?
Its value is 0.03 to 0.125 µg/mL.

And the MIC50 (Porphyromonas macaccae; Porphyromonas, read-out: Minimal Inhibitory Concentration 50% (MIC50))?
The MIC50 was 0.06 µg/mL (≈ 0.154 µM).

What about the MIC90 (Porphyromonas macaccae; Porphyromonas, 13 isolates, read-out: Minimal Inhibitory Concentration 90% (MIC90)) of the same compound?
The MIC90 was 0.125 µg/mL (≈ 0.321 µM).

And the “activity” value [7]?
Its value is “showed activity”.

And the “Minimal Inhibitory Concentration 90% (MIC90)” value [8]?
The value was 2 µg/mL.
